The inhibition is the change of the read-out against control, counted positive when it falls.

This assay concerns SOCE. Put plainly: SOCE inhibition in HEK cells by fluorescence microscopy (calcium imaging). Format: cell-based, human. As to conditions: for inhibition at 10 µM / inhibition at 3 µM: Homo sapiens; for inhibition at 10 µM: HEK293, HEK cells, negative value = increased Ca2+ entry vs control; for inhibition at 3 µM: HEK293, supplementary CSV, read-out: % SOCE Inhibition (3 µM); for AUC, peak amplitude, and slope of the Ca2+-rise: selected compounds, Figure S1. The method, then:
With these two compounds in hand, two click reactions were performed and compounds 9 and 18 (Table 1), displaying the same substructures as the reference compound Synta66, were obtained with a yield of 31 and 60%, respectively. 9 and 18 were tested for activity on SOCE in HEK cells, a human embryonic kidney (HEK) cell line, by fluorescence microscopy, as described elsewhere.[16] After 600 s, Ca^2+ was added and intracellular levels were measured.
Screening, dose–response experiments, and calcium imaging experiments were performed in HEK cells (ATCC, Rock, ville, MD, USA), as already reported elsewhere.[16]

A value given as a limit tells only on which side of the number the result lay.

With `COc1ccc(OC)c(-c2ccc(-n3cc(-c4ccncc4F)nn3)cc2)c1` [Compound 9, 4-(1-(2′,5′-Dimethoxy-[1,1′-biphenyl]-4-yl)-1H-1,2,3-triazol-4-yl)-3-fluoropyridine], the “effect on SOCE, in words” value (HEK cells) was “not able to reliably inhibit SOCE”.
Consider `COc1ccc(OC)c(-c2ccc(-n3cc(-c4ccncc4)nn3)cc2)c1` [Compound 10, 4-(1-(2′,5′-Dimethoxy-[1,1′-biphenyl]-4-yl)-1H-1,2,3-triazol-4-yl)pyridine], for which, for the setting “HEK cells”, the “effect on SOCE, in words” value is “not able to reliably inhibit SOCE” and the inhibition at 3 µM is -12.8 ± 14.4%. Also, the inhibition at 10 µM (10 μM) was -12.8 ± 14.4%.
Turning to `COc1ccc(OC)c(-c2ccc(-n3cc(-c4cccnc4)nn3)cc2)c1` [Compound 11, 3-(1-(2′,5′-Dimethoxy-[1,1′-biphenyl]-4-yl)-1H-1,2,3-triazol-4-yl)pyridine], for the setting “HEK cells”, the “effect on SOCE, in words” value is listed as “not able to reliably inhibit SOCE” and the inhibition at 3 µM is -14 ± 31.9%. The inhibition at 10 µM (10 μM) is -14 ± 31.9%.
For the compound `COc1ccc(OC)c(-c2ccc(-n3cc(-c4ccccn4)nn3)cc2)c1` [Compound 12, 2-(1-(2′,5′-Dimethoxy-[1,1′-biphenyl]-4-yl)-1H-1,2,3-triazol-4-yl)pyridine], the inhibition at 10 µM (10 μM) was 0%. Moreover, the inhibition at 3 µM (HEK cells) came to 0%.
With `COc1ccc(OC)c(-c2ccc(-n3cc(-c4ccnc(C(=O)O)c4)nn3)cc2)c1` [Compound 13, 4-(1-(2′,5′-Dimethoxy-[1,1′-biphenyl]-4-yl)-1H-1,2,3-triazol-4-yl)picolinic Acid], the inhibition at 10 µM (10 μM) was > 70%.
As for `COc1ccc(OC)c(-c2ccc(-n3cc(-c4cccc(C(=O)O)c4)nn3)cc2)c1` [Compound 14, 3-(1-(2′,5′-Dimethoxy-[1,1′-biphenyl]-4-yl)-1H-1,2,3-triazol-4-yl)benzoic Acid], under “10 μM”, the inhibition at 10 µM was > 70%.
Turning to `COc1ccc(OC)c(-c2ccc(-c3cn(-c4ccncc4)nn3)cc2)c1` [Compound 19, 4-(4-(2′,5′-Dimethoxy-[1,1′-biphenyl]-4-yl)-1H-1,2,3-triazol-1-yl)pyridine], the “effect on SOCE, in words” value (HEK cells) is given as “not able to reliably inhibit SOCE”.
On the same count and under the same terms, under `COc1ccc(OC)c(-c2ccc(-c3cn(-c4cccnc4)nn3)cc2)c1` [Compound 20, 3-(4-(2′,5′-Dimethoxy-[1,1′-biphenyl]-4-yl)-1H-1,2,3-triazol-1-yl)pyridine] stands “not able to reliably inhibit SOCE”.
Consider `COC(=O)c1cc(-n2cc(-c3ccc(-c4cc(OC)ccc4OC)cc3)nn2)ccn1` [Compound 21, Methyl 4-(4-(2′,5′-Dimethoxy-[1,1′-biphenyl]-4-yl)-1H-1,2,3-triazol-1-yl)picolinate], for which the inhibition at 10 µM (10 μM) was > 70%.
For `COc1ccc(OC)c(-c2ccc(-c3cn(-c4cccc(C(=O)O)c4)nn3)cc2)c1` [Compound 23, 3-(4-(2′,5′-Dimethoxy-[1,1′-biphenyl]-4-yl)-1H-1,2,3-triazol-1-yl)benzoic Acid], where the note is “HEK cells, 10 μM”, the “AUC and peak amplitude of the Ca2+-rise vs control” value was “significantly reduced AUC and peak amplitude”. Also, the inhibition at 10 µM (10 μM) is > 70%.
For `COc1cccc(-c2ccc(-n3cc(-c4cccc(C(=O)O)c4)nn3)cc2)c1` [Compound 31, 3-(1-(3′-Methoxy-[1,1′-biphenyl]-4-yl)-1H-1,2,3-triazol-4-yl)benzoic Acid], the “AUC, peak amplitude, and slope of the Ca2+-rise” value (HEK cells) is “induced a drop in the three parameters”.
Same read-out and setting: under `O=C(O)c1cccc(-c2cn(-c3ccc(-c4cccc5c4OCCO5)cc3)nn2)c1` [Compound 35, 3-(1-(4-(2,3-Dihydrobenzo[b][1,4]dioxin-5-yl)phenyl)-1H-1,2,3-triazol-4-yl)benzoic Acid] stands “induced a drop in the three parameters”.
The same measure, in the same setting: under `COc1cc(OC)cc(-c2ccc(-n3cc(-c4cccc(C(=O)O)c4)nn3)cc2)c1` [Compound 36, 3-(1-(3′,5′-Dimethoxy-[1,1′-biphenyl]-4-yl)-1H-1,2,3-triazol-4-yl)benzoic Acid] stands “induced a drop in the three parameters”.

Source of the values: paper PMC7735735, “Store-Operated Calcium Entry as a Therapeutic Target in Acute Pancreatitis: Discovery and Development of Drug-Like SOCE Inhibitors” (Journal of Medicinal Chemistry, 2020).
